US12544348B2, “Methods for treating APOE4/4-associated disorders” (The Regents of the University of California, priority 2018, dated 2026)

System: hippocampal cells of apoE4-KI mice
Experiment: Single-nucleus RNA-seq of hippocampus of apoE4-KI mice
Type: in vivo
Protocol: Single-Nucleus RNA-Seq Library Preparation and Sequencing. Twelve-month-old apoE3-KI and apoE4-KI mice received daily i.p. injections of vehicle or bumetanide (0.2 mg/kg body weight) for 60 days. […] Mouse hippocampi were acutely dissected on ice. Dissected hippocampi were placed in 2 mL Hibernate A®/B27®/GlutaMAX™ (HEB) medium in a 5 mL tube. The HEB medium was removed to a 15 mL conical and kept on ice. 2 mL of chilled lysis buffer (10 mM Tris-HCl, 10 mM NaCl, 3 mM MgCl2, and 0.1% Nonidet™ P40 Substitute in Nuclease-Free Water) were added to the tissue, and the hippocampi were homogenized by suctioning 10× through a 21G needle. After homogenization, the tissue was lysed on ice for 15 min, swirling 2-3×during this incubation period. The reserved chilled HEB media was then returned to the lysed tissue solution, and the tissue was further triturated with 5-7 passes through a 1 mL pipette. A 30 μm cell strainer (MACS SmartStrainer; Miltenyi Biotech 130-110-915) was washed with 1 mL of PBS, and the lysed tissue solution was filtered through the strainer to remove debris and clumps. Filtered nuclei were centrifuged at 500 ref for 5 min at 4° C. […]
Single-Nucleus RNA-Seq Alignment, Clustering and Cell Type Identification. […] Reads from each sample were aligned to this genome and aggregated using the 10×Cellranger pipeline with no modifications. […] Genes with detected expression in at least 3 nuclei, and nuclei with at least 200 detected genes and a maximum of 2400 were retained for analysis for a total of Nuclei with a mitochondrial percentage of less than 0.0025 were retained for future analysis for a total of 27,415 cells. Highly variable genes were calculated via the FindVariableGenes function with the parameters: x.low.cutoff=0.0123, x.high.cutoff =3, y.cutoff=0.5 for a total of 2578 highly variable genes. […] PCAElbow Plot was used to plot the cumulative standard deviations of each principal component the significance of the association of each gene with each principal component was assessed via the JackStraw and JackStrawPlot function. […]

CCCCNc1cc(C(=O)O)cc(S(N)(=O)=O)c1Oc1ccccc1 [bumetanide, 3-(butylamino)-4-phenoxy-5-sulfamoylbenzoic acid]
number of those pathways also enriched in apoE4/4-mediated AD in humans (0.2 mg/kg daily i.p. 8 weeks): 19 | number of cell types (of 18 clusters) in which apoE4/4 AD signature genes were flipped (0.2 mg/kg daily i.p. 8 weeks, P<0.05 Monte Carlo): 12 | number of ontological pathways enriched in at least one neuronal cell type with significant flip (p<0.005, 0.2 mg/kg daily i.p. 8 weeks): 104
